Test results as given in patent US12187728B2 (Raze Therapeutics, Inc., priority 2015, dated 2025).

Biological target: T1, Human MTHFD2 (Homo sapiens, UniProt P13995)
T1 construct: residues 36-350 in Uniport ID P13995; His6 (N); made in house; host or cells: E. coli
T1 sequence (P13995 36-350): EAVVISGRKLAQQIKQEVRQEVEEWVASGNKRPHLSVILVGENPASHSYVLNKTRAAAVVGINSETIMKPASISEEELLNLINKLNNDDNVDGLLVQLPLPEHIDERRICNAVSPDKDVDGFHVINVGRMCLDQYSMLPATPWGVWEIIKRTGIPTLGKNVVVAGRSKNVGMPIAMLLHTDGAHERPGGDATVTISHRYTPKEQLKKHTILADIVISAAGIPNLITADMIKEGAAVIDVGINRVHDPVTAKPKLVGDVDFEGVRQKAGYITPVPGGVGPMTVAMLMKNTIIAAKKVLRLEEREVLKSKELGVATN
Assay: MTHFD2 Activity Assay (dehydrogenase activity, diaphorase/resazurin coupled fluorescence)
Type: biochemical
Details: inhibitory activity (IC50 and/or binding constant); 0.2 nM MTHFD2, 11 concentrations
Excerpt: Human MTHFD2 (residues 36-350 in Uniport ID P13995) was expressed as an N-terminal His6 tagged protein and purified in E. coli using nickel capture followed by size-exclusion chromatography.
MTHFD2 dehydrogenase activity oxidizes methylene tetrahyrofolate to methenyl-tetrahydrofolate with the concomitant reduction of NAD to NADH. MTHFD2 dehydrogenase activity was followed by coupling the generation of NADH to diaphorase catalyzed […] of resazurin to fluorescent resorufin. Briefly, control (DMSO) or compound was incubated with 0.2 nM MTHFD2 for 15 minutes in 10.5 μl assay buffer containing 100 mM Hepes, pH 8.0, 5 mM MgCl2, 5 mM KH2PO4, 0.05% BSA, 0.01% Tween-20 in a 384 well Griener, low volume, black plate. 10 μl of substrate buffer containing 70 μM CH2-THF, 1 mM NAD^+, 100 μM Resazurin and 0.42 mg/ml diaphorase was then added to initiate the reaction and the reaction plate was incubated for 30 minutes. 5 μl of 250 mM EDTA was then added to each well to stop the reaction and MTHFD2 activity was quantified by measuring resorufin fluorescence emission at 598 nm following excitation at 525 nm. Activity in positive control wells containing the complete reaction mixture and DMSO alone was set to 100% while activity in negative control wells with the complete reaction mix without MTHFD2 was set to 0%. 11 concentrations of each compound were tested and the fluorescent data at each concentration was normalized to the positive and negative controls and represented as % inhibition. Median inhibitory concentration (IC50) was calculated by fitting % inhibition at each concentration to a 4 parameter logistic fit equation using Graphpad Prizm.
The compound numbers correspond to the compound numbers in Table A (i.e., the example numbers).

| IC50 [nM] | Structure (SMILES) |
| --- | --- |
| 10 to 1000 | Cn1c(Cn2c(=O)c3c(nc(Nc4ccncn4)n3C)n(C)c2=O)cc2cc(Cl)ccc21 [Example 204, 1-((5-chloro-1-methyl-1H-indol-2-yl)methyl)-3,7-dimethyl-8-(pyrimidin-4-ylamino)-1H-purine-2,6(3H,7H)-dione] |
| 10 to 1000 | Cn1c(NCCCCO)nc2c1c(=O)n(Cc1ccc(Cl)c(Cl)c1)c(=O)n2C [Example 28, 1-[(3,4-dichlorophenyl)methyl]-8-[(4-hydroxybutyl)amino]-3,7-dimethyl-2,3,6,7-tetrahydro-1H-purine-2,6-dione] |
| 10 to 1000 | Cn1c(Nc2ccnc(CCC(=O)O)c2)nc2c1c(=O)n(Cc1ccc(Cl)c(Cl)c1)c(=O)n2C [Example 277, 3-(4-(1-(3,4-dichlorobenzyl)-3,7-dimethyl-2,6-dioxo-2,3,6,7-tetrahydro-1H-purin-8-ylamino)pyridin-2-yl)propanoic acid] |
| 10 to 1000 | Cn1c(N[C@@H]2CCC[C@H](C(=O)O)C2)nc2c1c(=O)n(Cc1ccc(Cl)c(Cl)c1)c(=O)n2C (single isomer, unassigned) [Example 187, (1S,3R)-3-(1-(3,4-dichlorobenzyl)-3,7-dimethyl-2,6-dioxo-2,3,6,7-tetrahydro-1H-purin-8-ylamino)cyclohexanecarboxylic acid or (1R,3S)-3-(1-(3,4-dichlorobenzyl)-3,7-dimethyl-2,6-dioxo-2,3,6,7-tetrahydro-1H-purin-8-ylamino)cyclohexanecarboxylic acid] |
| 10 to 1000 | Cn1c(-n2nccc2N)nc2c1c(=O)n(Cc1cc3cc(Cl)ccc3[nH]1)c(=O)n2C [Example 219, 8-(5-amino-1H-pyrazol-1-yl)-1-((5-chloro-1H-indol-2-yl)methyl)-3,7-dimethyl-1H-purine-2,6(3H,7H)-dione] |
| 1000 to 5000 | Cn1c(Nc2cc[nH]n2)nc2c1c(=O)n(Cc1ccc(Cl)c(Cl)c1)c(=O)n2C [Example 141, 8-(1H-pyrazol-3-ylamino)-1-(3,4-dichlorobenzyl)-3,7-dimethyl-1H-purine-2,6(3H,7H)-dione] |
| 5000 to 10000 | Cn1c(NCc2ccccc2)nc2c1c(=O)n(Cc1ccc(Cl)c(Cl)c1)c(=O)n2C [Example 137, 8-(benzylamino)-1-(3,4-dichlorobenzyl)-3,7-dimethyl-1H-purine-2,6(3H,7H)-dione] |
| 10 to 1000 | Cn1c(Nc2cc[nH]c(=O)n2)nc2c1c(=O)n(Cc1ccc(Cl)c(Cl)c1)c(=O)n2C [Example 140, 1-(3,4-dichlorobenzyl)-3,7-dimethyl-8-(2-oxo-1,2-dihydropyrimidin-4-ylamino)-1H-purine-2,6(3H,7H)-dione] |
| 10 to 1000 | Cn1c(Nc2ccc(N3CCNCC3)cn2)nc2c1c(=O)n(Cc1cc3c(Cl)cccc3[nH]1)c(=O)n2C [Example 392, 1-[(4-chloro-1H-indol-2-yl)methyl]-3,7-dimethyl-8-[(5-piperazin-1-yl-2-pyridyl)amino]purine-2,6-dione] |
| 10 to 1000 | Cn1c(Nc2ccnc([C@H]3C[C@H]3C(=O)O)c2)nc2c1c(=O)n(Cc1cc3c(Cl)cccc3[nH]1)c(=O)n2C (racemic) [Example 368, (±)-cis-2-(4-((1-((4-chloro-1H-indol-2-yl)methyl)-3,7-dimethyl-2,6-dioxo-2,3,6,7-tetrahydro-1H-purin-8-yl)amino)pyridin-2-yl)cyclopropanecarboxylic acid] |
| 10 to 1000 | Cn1c(=O)n(Cc2cc3c(Cl)cccc3[nH]2)c(=O)c2c1nc1n2CCNC1 [Example 476, 3-((4-chloro-1H-indol-2-yl)methyl)-1-methyl-6,7,8,9-tetrahydropyrazino[1,2-f]purine-2,4(1H,3H)-dione] |
| 1000 to 5000 | Cn1c(N[C@H]2CC[C@@H](O)C2)nc2c1c(=O)n(Cc1ccc(C(F)(F)F)cc1)c(=O)n2C (single isomer, unassigned) [Example 133, 8-((1S,3R)-3-hydroxycyclopentylamino)-3,7-dimethyl-1-(4-(trifluoromethyl)benzyl)-1H-purine-2,6(3H,7H)-dione or 8-((1R,3S)-3-hydroxycyclopentylamino)-3,7-dimethyl-1-(4-(trifluoromethyl)benzyl)-1H-purine-2,6(3H,7H)-dione] |
| 10 to 1000 | Cn1c(Nc2cc[nH]c(=O)n2)nc2c1c(=O)n(Cc1cc3cc(Cl)ccc3[nH]1)c(=O)n2C [Example 206, 1-((5-chloro-1H-indol-2-yl)methyl)-3,7-dimethyl-8-(2-oxo-1,2-dihydropyrimidin-4-ylamino)-1H-purine-2,6(3H,7H)-dione] |
| 5000 to 10000 | Cn1c(N)nc2c1c(=O)n(Cc1ccc(Cl)c(Cl)c1)c(=O)n2C [Example 153, 8-amino-1-(3,4-dichlorobenzyl)-3,7-dimethyl-1H-purine-2,6(3H,7H)-dione] |
| 10 to 1000 | Cn1c(Nc2cnccn2)nc2c1c(=O)n(Cc1cc3c(Cl)cccc3[nH]1)c(=O)n2C [Example 354, 1-((4-chloro-1H-indol-2-yl)methyl)-3,7-dimethyl-8-(pyrazin-2-ylamino)-1H-purine-2,6(3H,7H)-dione] |
| 10 to 1000 | Cc1ccc2[nH]c(Cn3c(=O)c4c(nc(Nc5ccncn5)n4C)n(C)c3=O)cc2c1 [Example 205, 3,7-dimethyl-1-((5-methyl-1H-indol-2-yl)methyl)-8-(pyrimidin-4-ylamino)-1H-purine-2,6(3H,7H)-dione] |
| 10 to 1000 | CCn1c(=O)n(Cc2ccc3c(C)cccc3c2)c(=O)c2c1nc(C(C)N)n2C (stereo not drawn) [Example 459, 8-(1-aminoethyl)-3-ethyl-7-methyl-1-((5-methylnaphthalen-2-yl)methyl)-1H-purine-2,6(3H,7H)-dione] |
| 10 to 1000 | Cn1c(N[C@H]2CCC[C@H]2N)nc2c1c(=O)n(Cc1cc3c(Cl)cccc3[nH]1)c(=O)n2C [Example 439, 8-((1S,2R)-2-aminocyclopentylamino)-1-((4-chloro-1H-indol-2-yl)methyl)-3,7-dimethyl-1H-purine-2,6(3H,7H)-dione] |
| 10 to 1000 | Cn1c(Nc2ccc(C#N)nc2)nc2c1c(=O)n(Cc1cc3c(Cl)cccc3[nH]1)c(=O)n2C [Example 427, 5-(1-((4-chloro-1H-indol-2-yl)methyl)-3,7-dimethyl-2,6-dioxo-2,3,6,7-tetrahydro-1H-purin-8-ylamino)picolinonitrile] |
| 5000 to 10000 | Cn1c(Nc2ccncc2)nc2c1c(=O)n(Cc1cc3c(C#N)cccc3[nH]1)c(=O)n2C [Example 350, 2-((3,7-dimethyl-2,6-dioxo-8-(pyridin-4-ylamino)-2,3,6,7-tetrahydro-1H-purin-1-yl)methyl)-1H-indole-4-carbonitrile] |
| 10 to 1000 | Cn1c(Cn2c(=O)c3c(nc(-n4ncnc4N)n3C)n(C)c2=O)cc2cc(Cl)ccc21 [Example 230, 8-(5-amino-1H-1,2,4-triazol-1-yl)-1-((5-chloro-1-methyl-1H-indol-2-yl)methyl)-3,7-dimethyl-1H-purine-2,6(3H,7H)-dione] |
| 1000 to 5000 | Cn1c(N[C@@H]2CCCC[C@@H]2O)nc2c1c(=O)n(Cc1ccc(Cl)c(Cl)c1)c(=O)n2C (racemic) [Example 95, (±)-1-[(3,4-dichlorophenyl)methyl]-8-{[(cis)-2-hydroxycyclohexyl]amino}-3,7-dimethyl-2,3,6,7-tetrahydro-1H-purine-2,6-dione] |
| 10 to 1000 | Cn1c(Nc2cc[nH]c(=O)n2)nc2c1c(=O)n(Cc1cc3ccccc3[nH]1)c(=O)n2C [Example 189, 1-((1H-indol-2-yl)methyl)-3,7-dimethyl-8-(2-oxo-1,2-dihydropyrimidin-4-ylamino)-1H-purine-2,6(3H,7H)-dione] |
| 10 to 1000 | Cn1c(Nc2ccncc2)nc2c1c(=O)n(Cc1cc3c(Cl)ccc(Cl)c3[nH]1)c(=O)n2C [Example 477, 1-((4,7-dichloro-1H-indol-2-yl)methyl)-3,7-dimethyl-8-(pyridin-4-ylamino)-1H-purine-2,6(3H,7H)-dione] |
| > 10000 | Cn1c(NCCCO)nc2c1c(=O)n(Cc1ccc(F)c(F)c1)c(=O)n2C [Example 29, 1-[(3,4-difluorophenyl)methyl]-8-[(3-hydroxypropyl)amino]-3,7-dimethyl-2,3,6,7-tetrahydro-1H-purine-2,6-dione] |
| 10 to 1000 | Cc1ccc2[nH]c(Cn3c(=O)c4c(nc(Nc5ccncc5)n4C)n(C)c3=O)cc2c1 [Example 181, 3,7-dimethyl-1-((5-methyl-1H-indol-2-yl)methyl)-8-(pyridin-4-ylamino)-1H-purine-2,6(3H,7H)-dione] |
| 10 to 1000 | Cn1c(Nc2ccc(C(=O)O)cc2)nc2c1c(=O)n(Cc1ccc(Cl)c(Cl)c1)c(=O)n2C [Example 269, 4-[[1-[(3,4-dichlorophenyl)methyl]-3,7-dimethyl-2,6-dioxo-purin-8-yl]amino]benzoic acid] |
